2 compounds from patent US11388901B2, “Herbicidal azines” (BASF SE, priority 2017, dated 2022) can be followed below.

Holding throughout (assay type): in vivo
Holding throughout (conditions): 250 g/ha, scale 0 to 100

Experiment [1] deals with Amaranthus retroflexus. Description: greenhouse pre-emergence herbicidal test. From the text:
The seeds of the test plants were sown separately for each species. For the pre-emergence treatment, the active ingredients, which had been suspended or emulsified in water, were applied directly after sowing by means of finely distributing nozzles. The containers were irrigated gently to promote germination and growth and subsequently covered with transparent plastic hoods until the plants had rooted. This cover caused uniform germination of the test plants, unless this had been impaired by the active ingredients. […] The test period extended over 2 to 4 weeks. During this time, the plants were tended, and their response to the individual treatments was evaluated. Evaluation was carried out using a scale from 0 to 100. 100 means no emergence of the plants, or complete destruction of at least the aerial moieties, and 0 means no damage, or normal course of growth. A moderate herbicidal activity is given at values of at least 60, a good herbicidal activity is given at values of at least 70, and a very good herbicidal activity is given at values of at least 85. The plants used in the greenhouse experiments were of the following species: […]

In the next experiment the test system is Apera spica-venti. Description: greenhouse pre-emergence herbicidal test. An excerpt:
(§1) The culture containers used were plastic flowerpots containing loamy sand with approximately 3.0% of humus as the substrate. The seeds of the test plants were sown separately for each species.
(§2) For the pre-emergence treatment, the active ingredients, which had been suspended or emulsified in water, were applied directly after sowing by means of finely distributing nozzles.
(§3) The containers were irrigated gently to promote germination and growth and subsequently covered with transparent plastic hoods until the plants had rooted. This cover caused uniform germination of the test plants, unless this had been impaired by the active ingredients.
(§4) Depending on the species, the plants were kept at 10-25° C. or 20-35° C., respectively.
(§5) The test period extended over 2 to 4 weeks. During this time, the plants were tended, and their response to the individual treatments was evaluated.
(§6) Evaluation was carried out using a scale from 0 to 100. 100 means no emergence of the plants, or complete destruction of at least the aerial moieties, and 0 means no damage, or normal course of growth. A moderate herbicidal activity is given at values of at least 60, a good herbicidal activity is given at values of at least 70, and a very good herbicidal activity is given at values of at least 85.
(§7) The plants used in the greenhouse experiments were of the following species: […]

For experiment [2], the system named is Amaranthus retroflexus. Nature of the experiment: greenhouse post-emergence herbicidal test.
Excerpt: as §1
(§8) For the post-emergence treatment, the test plants were first grown to a height of 3 to 15 cm, depending on the plant habit, and only then treated with the active ingredients which had been suspended or emulsified in water. For this purpose, the test plants were either sown directly and grown in the same containers, or they were first grown separately as seedlings and transplanted into the test containers a few days prior to treatment.
as §4, §5, §6, §7

The subject of the next experiment is Echinocloa crus-galli. Description: greenhouse post-emergence herbicidal test.
Excerpt: as §1, §8, §4, §5, §6, §7

A further experiment has as its system Abutilon theophrasti. Description: greenhouse post-emergence herbicidal test.
Excerpt: as §1, §8, §4, §5, §6, §7

Another experiment concerns Setaria faberi. Description: greenhouse pre-emergence herbicidal test.
Excerpt: as §1, §2, §3, §4, §5, §6, §7

Another experiment relates to Setaria viridis. Description: greenhouse post-emergence herbicidal test.
Excerpt: as §1, §8, §4, §5, §6, §7

Turning to `CC(C)(F)c1nc(N)nc(Nc2c(F)nc(F)c(F)c2OCC(F)(F)F)n1` [Example 65], the herbicidal activity came to 100% with Amaranthus retroflexus [1]; 100% in the experiment with Apera spica-venti; 100% in the experiment on Amaranthus retroflexus [2]; 95% in the experiment on Echinocloa crus-galli; 100% with Abutilon theophrasti.

Turning to `Cc1ccnc(F)c1Nc1nc(N)nc(C2(F)CCCC2)n1` [Example 54], the herbicidal activity in the experiment on Amaranthus retroflexus [1] was 100%; in the experiment with Apera spica-venti it was 98%; in the experiment on Setaria faberi, 100%; in the experiment with Setaria viridis it was 80%.
